Measurements published in PubChem BioAssay (NCI).
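Five concentrations, 48 hours, 96-well plates. TGI is the concentration that stops growth completely.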

Legend:
Assay in all cases: NCI anticancer screen, dose series, 48 h
HCT-116 colon = tested on: HCT-116 colon
M14 melanoma = tested on: M14 melanoma
RXF-631 renal = tested on: RXF-631 renal
SN12C renal = tested on: SN12C renal
CAKI-1 renal = tested on: CAKI-1 renal
OVCAR-5 ovarian = tested on: OVCAR-5 ovarian
SF-268 CNS = tested on: SF-268 CNS
SR leukemia = tested on: SR leukemia
SNB-75 CNS = tested on: SNB-75 CNS
LXFL 529 NSCLC = tested on: LXFL 529 NSCLC
HOP-18 NSCLC = tested on: HOP-18 NSCLC
SNB-19 CNS = tested on: SNB-19 CNS
LOX IMVI melanoma = tested on: LOX IMVI melanoma
A549 NSCLC = tested on: A549 NSCLC
HT29 colon = tested on: HT29 colon
SK-OV-3 ovarian = tested on: SK-OV-3 ovarian
ACHN renal = tested on: ACHN renal
NCI-H460 lung = tested on: NCI-H460 lung
KM20L2 colon = tested on: KM20L2 colon
OVCAR-8 ovarian = tested on: OVCAR-8 ovarian
COLO 205 colon = tested on: COLO 205 colon
SW-620 colon = tested on: SW-620 colon
SF-295 CNS = tested on: SF-295 CNS
HCC-2998 colon = tested on: HCC-2998 colon
UACC-62 melanoma = tested on: UACC-62 melanoma
SK-MEL-2 melanoma = tested on: SK-MEL-2 melanoma
UO-31 renal = tested on: UO-31 renal
786-0 renal = tested on: 786-0 renal
HCT-15 colon = tested on: HCT-15 colon
SK-MEL-5 melanoma = tested on: SK-MEL-5 melanoma
KM12 colon = tested on: KM12 colon
NCI-H226 lung = tested on: NCI-H226 lung
HOP-62 NSCLC = tested on: HOP-62 NSCLC
K-562 leukemia = tested on: K-562 leukemia
DLD-1 colon = tested on: DLD-1 colon
SNB-78 CNS = tested on: SNB-78 CNS
OVCAR-4 ovarian = tested on: OVCAR-4 ovarian
A498 renal = tested on: A498 renal
MOLT-4 leukemia = tested on: MOLT-4 leukemia
SK-MEL-28 melanoma = tested on: SK-MEL-28 melanoma
RXF 393 renal = tested on: RXF 393 renal
RPMI-8226 leukemia = tested on: RPMI-8226 leukemia
CCRF-CEM leukemia = tested on: CCRF-CEM leukemia
NCI-H23 lung = tested on: NCI-H23 lung
UACC-257 melanoma = tested on: UACC-257 melanoma
HL-60(TB) leukemia = tested on: HL-60(TB) leukemia
TK-10 renal = tested on: TK-10 renal
IGROV1 ovarian = tested on: IGROV1 ovarian
NCI-H522 lung = tested on: NCI-H522 lung
EKVX NSCLC = tested on: EKVX NSCLC
OVCAR-3 ovarian = tested on: OVCAR-3 ovarian
MALME-3M melanoma = tested on: MALME-3M melanoma
DMS 114 small cell lung = tested on: DMS 114 small cell lung
SF-539 CNS = tested on: SF-539 CNS
DMS 273 small cell lung = tested on: DMS 273 small cell lung
U251 CNS = tested on: U251 CNS
HOP-92 NSCLC = tested on: HOP-92 NSCLC
M19-MEL melanoma = tested on: M19-MEL melanoma
XF 498 CNS = tested on: XF 498 CNS

For C[C@H]1C(=O)CC[C@]2(C)CCC(C(C)(C)O)CC12O (stereo not given in full), the TGI (HCT-116 colon) was > 100 µM, the TGI (M14 melanoma) was > 100 µM and the TGI (RXF-631 renal) was > 100 µM. The TGI (SN12C renal) was > 100 µM, the TGI (CAKI-1 renal) was > 100 µM and the TGI (OVCAR-5 ovarian) was > 100 µM. For the same compound, the TGI (SF-268 CNS) was > 100 µM, the TGI (SR leukemia) was > 100 µM and the TGI (SNB-75 CNS) was > 100 µM. The TGI (LXFL 529 NSCLC) was > 100 µM, the TGI (HOP-18 NSCLC) was > 100 µM and the TGI (SNB-19 CNS) was > 100 µM. The TGI (LOX IMVI melanoma) was > 100 µM, the TGI (A549 NSCLC) was > 100 µM and the TGI (HT29 colon) was > 100 µM. For the same compound, the TGI (SK-OV-3 ovarian) was > 100 µM, the TGI (ACHN renal) was > 100 µM and the TGI (NCI-H460 lung) was > 100 µM. For the same compound, the TGI (KM20L2 colon) was > 100 µM, the TGI (OVCAR-8 ovarian) was > 100 µM and the TGI (COLO 205 colon) was > 100 µM. For the same compound, the TGI (SW-620 colon) was > 100 µM, the TGI (SF-295 CNS) was > 100 µM and the TGI (HCC-2998 colon) was > 100 µM. The TGI (UACC-62 melanoma) was > 100 µM, the TGI (SK-MEL-2 melanoma) was > 100 µM and the TGI (UO-31 renal) was > 100 µM. The TGI (786-0 renal) was > 100 µM, the TGI (HCT-15 colon) was > 100 µM and the TGI (SK-MEL-5 melanoma) was > 100 µM. The TGI (KM12 colon) was > 100 µM, the TGI (NCI-H226 lung) was > 100 µM and the TGI (HOP-62 NSCLC) was > 100 µM. The TGI (K-562 leukemia) was > 100 µM, the TGI (DLD-1 colon) was > 100 µM and the TGI (SNB-78 CNS) was > 100 µM. For the same compound, the TGI (OVCAR-4 ovarian) was > 100 µM, the TGI (A498 renal) was > 100 µM and the TGI (MOLT-4 leukemia) was > 100 µM. The TGI (SK-MEL-28 melanoma) was > 100 µM, the TGI (RXF 393 renal) was > 100 µM and the TGI (RPMI-8226 leukemia) was > 100 µM. For the same compound, the TGI (CCRF-CEM leukemia) was > 100 µM, the TGI (NCI-H23 lung) was > 100 µM and the TGI (UACC-257 melanoma) was > 100 µM. For the same compound, the TGI (HL-60(TB) leukemia) was > 100 µM, the TGI (TK-10 renal) was > 100 µM and the TGI (IGROV1 ovarian) was > 100 µM. The TGI (NCI-H522 lung) was > 100 µM, the TGI (EKVX NSCLC) was > 100 µM and the TGI (OVCAR-3 ovarian) was > 100 µM. For the same compound, the TGI (MALME-3M melanoma) was > 100 µM, the TGI (DMS 114 small cell lung) was > 100 µM and the TGI (SF-539 CNS) was > 100 µM. The TGI (DMS 273 small cell lung) was > 100 µM, the TGI (U251 CNS) was > 100 µM and the TGI (HOP-92 NSCLC) was > 100 µM.
CC1=C(C(=O)Nc2ccc([N+](=O)[O-])cc2)C(c2ccccc2F)C(C(=O)Nc2ccc([N+](=O)[O-])cc2)=C(C)N1 was tested, and the TGI (HCT-116 colon) was 31.5 µM, the TGI (M14 melanoma) was 49.4 µM and the TGI (RXF-631 renal) was > 100 µM. For the same compound, the TGI (SN12C renal) was 48.3 µM, the TGI (CAKI-1 renal) was 68.9 µM and the TGI (OVCAR-5 ovarian) was > 100 µM. The TGI (SF-268 CNS) was > 100 µM, the TGI (SNB-75 CNS) was 83.9 µM and the TGI (LXFL 529 NSCLC) was 59.6 µM. For the same compound, the TGI (SNB-19 CNS) was > 100 µM, the TGI (LOX IMVI melanoma) was 31.3 µM and the TGI (A549 NSCLC) was > 100 µM. It also gave a TGI (HT29 colon) of 95.2 µM, a TGI (SK-OV-3 ovarian) of 79.7 µM and a TGI (ACHN renal) of 39.8 µM. The TGI (NCI-H460 lung) was 69.7 µM, the TGI (KM20L2 colon) was 29.8 µM and the TGI (OVCAR-8 ovarian) was > 100 µM. The TGI (COLO 205 colon) was 29.7 µM, the TGI (SW-620 colon) was > 100 µM and the TGI (SF-295 CNS) was 63 µM. The TGI (HCC-2998 colon) was 29.1 µM, the TGI (SK-MEL-2 melanoma) was 24.7 µM and the TGI (UO-31 renal) was 51.7 µM. For the same compound, the TGI (786-0 renal) was > 100 µM, the TGI (SK-MEL-5 melanoma) was 40.6 µM and the TGI (KM12 colon) was 53.9 µM. The TGI (NCI-H226 lung) was 79.7 µM, the TGI (HOP-62 NSCLC) was 47.8 µM and the TGI (K-562 leukemia) was > 100 µM. For the same compound, the TGI (DLD-1 colon) was > 100 µM, the TGI (OVCAR-4 ovarian) was 89.8 µM and the TGI (A498 renal) was 34.9 µM. For the same compound, the TGI (MOLT-4 leukemia) was 27.4 µM, the TGI (SK-MEL-28 melanoma) was > 100 µM and the TGI (RXF 393 renal) was 79.2 µM. It also gave a TGI (RPMI-8226 leukemia) of 27.5 µM, a TGI (CCRF-CEM leukemia) of 48.7 µM and a TGI (NCI-H23 lung) of 44.4 µM. For the same compound, the TGI (UACC-257 melanoma) was 48.7 µM, the TGI (HL-60(TB) leukemia) was 24.7 µM and the TGI (TK-10 renal) was > 100 µM. For the same compound, the TGI (M19-MEL melanoma) was 55.5 µM, the TGI (IGROV1 ovarian) was > 100 µM and the TGI (NCI-H522 lung) was 35 µM. For the same compound, the TGI (EKVX NSCLC) was > 100 µM, the TGI (OVCAR-3 ovarian) was 39.8 µM and the TGI (MALME-3M melanoma) was 42.6 µM. For the same compound, the TGI (XF 498 CNS) was 6.94 µM, the TGI (DMS 114 small cell lung) was 87.8 µM and the TGI (SF-539 CNS) was > 100 µM. It also gave a TGI (U251 CNS) of 76.6 µM and a TGI (HOP-92 NSCLC) of 31.1 µM.
